# Paper PMC7828477, “Synthesis and Evaluation of Novel Iminosugars Prepared from Natural Amino Acids” (Molecules, 2021)
# Structures can show the parent of a compound that is named as a salt.
# How the values were obtained:
# Experiment in all cases: p-nitrophenyl glycoside hydrolysis, A405, […] min
# Format in all cases: biochemical
# [1] = molecular target: T1, β-galactosidase from Escherichia coli (Escherichia coli, UniProt P00722); settings: read-out: β-Gal
# T1 construct: gene lacZ
# [2] = molecular target: T2, α-L-fucosidase from Homo sapiens (Homo sapiens, UniProt P04066); settings: read-out: α-L-Fuc
# T2 construct: gene FUCA1
# T2 sequence (P04066 32-466): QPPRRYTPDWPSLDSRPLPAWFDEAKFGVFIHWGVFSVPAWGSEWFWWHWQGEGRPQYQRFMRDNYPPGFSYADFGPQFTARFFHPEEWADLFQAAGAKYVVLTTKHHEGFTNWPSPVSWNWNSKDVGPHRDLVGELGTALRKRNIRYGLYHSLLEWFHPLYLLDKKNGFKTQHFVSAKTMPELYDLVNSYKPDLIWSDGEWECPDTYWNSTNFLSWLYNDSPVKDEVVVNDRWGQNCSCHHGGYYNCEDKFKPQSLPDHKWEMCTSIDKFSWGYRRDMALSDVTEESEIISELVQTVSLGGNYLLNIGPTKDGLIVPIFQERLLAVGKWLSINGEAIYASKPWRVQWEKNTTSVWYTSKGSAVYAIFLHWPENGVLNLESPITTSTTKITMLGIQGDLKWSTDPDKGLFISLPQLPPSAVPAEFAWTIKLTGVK
# [3] = molecular target: α-galactosidase from Green coffee (Coffea arabica, UniProt Q42656); settings: read-out: α-Gal
# α-galactosidase from Green coffee, sequence (Q42656 16-378): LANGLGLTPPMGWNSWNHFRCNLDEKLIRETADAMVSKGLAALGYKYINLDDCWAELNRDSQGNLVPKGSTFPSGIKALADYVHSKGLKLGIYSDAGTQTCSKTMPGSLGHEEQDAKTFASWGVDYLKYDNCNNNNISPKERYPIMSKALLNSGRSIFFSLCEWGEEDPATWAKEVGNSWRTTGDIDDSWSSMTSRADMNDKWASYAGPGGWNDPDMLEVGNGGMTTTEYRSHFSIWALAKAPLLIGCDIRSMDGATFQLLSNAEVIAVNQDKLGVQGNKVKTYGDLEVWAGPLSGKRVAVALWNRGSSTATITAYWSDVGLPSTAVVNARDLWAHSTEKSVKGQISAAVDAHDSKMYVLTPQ
# T1 sequence (P00722 2-1024): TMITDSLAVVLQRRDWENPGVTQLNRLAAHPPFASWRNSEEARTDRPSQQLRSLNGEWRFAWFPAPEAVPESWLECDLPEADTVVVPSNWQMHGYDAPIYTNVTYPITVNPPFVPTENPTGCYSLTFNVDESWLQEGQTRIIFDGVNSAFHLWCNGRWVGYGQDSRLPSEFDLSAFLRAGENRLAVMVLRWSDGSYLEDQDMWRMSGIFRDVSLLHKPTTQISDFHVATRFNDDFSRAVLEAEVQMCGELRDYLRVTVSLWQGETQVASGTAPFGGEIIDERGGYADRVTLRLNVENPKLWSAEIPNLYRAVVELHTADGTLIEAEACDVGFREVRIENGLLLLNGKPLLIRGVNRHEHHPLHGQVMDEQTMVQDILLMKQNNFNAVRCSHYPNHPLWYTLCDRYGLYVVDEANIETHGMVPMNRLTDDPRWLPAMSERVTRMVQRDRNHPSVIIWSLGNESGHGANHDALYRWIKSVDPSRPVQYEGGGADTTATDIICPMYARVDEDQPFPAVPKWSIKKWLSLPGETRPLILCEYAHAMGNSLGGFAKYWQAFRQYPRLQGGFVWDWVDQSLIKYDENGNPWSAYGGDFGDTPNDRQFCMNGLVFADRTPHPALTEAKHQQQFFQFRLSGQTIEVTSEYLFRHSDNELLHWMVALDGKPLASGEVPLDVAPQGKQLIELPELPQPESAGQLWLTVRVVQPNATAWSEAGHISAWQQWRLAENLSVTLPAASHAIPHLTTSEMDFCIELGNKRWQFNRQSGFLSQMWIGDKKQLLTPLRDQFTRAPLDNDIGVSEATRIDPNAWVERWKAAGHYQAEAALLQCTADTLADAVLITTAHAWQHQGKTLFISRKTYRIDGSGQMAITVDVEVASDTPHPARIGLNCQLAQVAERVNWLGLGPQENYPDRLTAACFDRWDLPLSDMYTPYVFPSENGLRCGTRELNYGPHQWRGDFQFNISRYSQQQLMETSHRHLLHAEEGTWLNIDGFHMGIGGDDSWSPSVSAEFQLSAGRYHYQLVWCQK
smiles,measurement,setting,value
OC[C@@H]1[C@@H]2CN[C@@H](CO)[C@@H](O)[C@H]12 [11b],activity at 5000 µM,[1],25%
"C[C@@H]1NC[C@H]2[C@H](CO)[C@H]2[C@H]1O [6b, (1S,4S,5R,6S,7S)-7-(hydroxymethyl)-4-methyl-3-azabicyclo[4.1.0]heptan-5-ol]",activity at 5000 µM,[2],142%
"O=C(O)[C@H]1[C@@H]2CN[C@@H](CO)[C@@H](O)[C@@H]21 [10a, (1R,4S,5S,6S,7S)-7-carboxy-5-hydroxy-4-(hydroxymethyl)-3-azabicyclo[4.1.0]heptan-3-ium trifluoroacetate]",activity at 5000 µM,[3],154%
